For one data set, the target named is Human 5-HT6 Receptor (Homo sapiens, UniProt P50406). The data set is described as follows: Binding Assay for Human 5-HT6 Receptor ([3H]LSD radioligand). Conditions: [3H]LSD 1.5 nM, human recombinant receptor in HEK293 cells; for % Inhibition at 100 nM: 100 nM test compound; for % Inhibition at 1000 nM: 1000 nM test compound; for % Inhibition at 10 nM: 10 nM test compound.

Data set [1] is described as follows: Rodent Pharmacokinetic Study. Conditions: Wistar/Male rat; for AUCt / T1/2 / Tmax / Cmax: 10 mg/kg, 50% PEG-400 in water for injection; for Cmax: plasma; for Bioavailability: oral 10 mg/kg versus intravenous. Type of data set: in vivo, Male wistar rats. How it is done:
Male wistar rats (230-280 grams) obtained from NIN (National Institute of Nutrition, Hyderabad, India) were used as an experimental animal.
Three to five animals were housed in each cage. Animals were kept fasted over night and maintained on a 12 hours light/dark cycle. […]
At each time point blood was collected by jugular vein. Plasma was stored frozen at −20° C. until analysis. The concentrations of the NCE compound in plasma were determined using LC-MS/MS method.
Schedule time points: Pre dose. 0.25, 0.5, 1, 1.5, 2, 3, 4, 6, 8, 10, 12 and 24 hours after dosing (n=3). The NCE compounds were quantified in plasma by validated LC-MS/MS method using solid phase extraction technique. NCE compounds were quantified in the calibration range of 2-2000 ng/mL in plasma. Study samples were analyzed using calibration samples in the batch and quality control samples spread across the batch.
Pharmacokinetic parameters Cmax, Tmax, AUCt, AUCinf, half life, volume of distribution, clearance, mean residence time and thereby oral bioavailability were calculated by non-compartmental model using software WinNonlin version 5.1.

Data set [2] can be described thus: Rodent Brain Penetration Study. Type of data set: in vivo, Male Wister rats. Conditions: Wistar/Male rat, Intravenous infusion, 1 mg/kg, brain/plasma. How it is done:
Male Wister rats (230-280 grams) obtained from NIN (National Institute of Nutrition, Hyderabad, India) was used as an experimental animal. Three animals were housed in each cage. Animals were given water and food ad libitum throughout the experiment, and maintained on a 12 hours light/dark cycle.
Brain penetration was determined at steady state in rat. One day prior to dosing day, male wistar rats (225-250 grams) were anesthetized with halothane for surgical placement of jugular and femoral vein catheters. After surgery, the rats were housed in individual rat infusion cage connected with infusion components (Instech Solomon; Plymouth Meeting, Pa. USA) and allowed free access to food and water
NCE compound was dissolved in water and administered at a constant infusion rate (5 mL/kg/hr) over 6-10 hours at a target dose rate of 1.0 mg free base/kg/h. Blood samples were removed during the latter part of the infusion to confirm steady-state blood concentrations, brain and blood was collected and estimated. Animals will be sacrificed to collect the plasma and brain tissue and was homogenized. Plasma and Brain was stored frozen at −20° C. until analysis. The concentrations of the NCE compound in plasma and Brain were determined using LC-MS/MS method.
The NCE compounds were quantified in plasma and brain homogenate by validated LC-MS/MS method using solid phase extraction technique. NCE compounds were quantified in the calibration range of 1-500 ng/mL in plasma and brain homogenate. Study samples were analyzed using calibration samples in the batch and quality control samples spread across the batch. Extents of brain-blood ratio were calculated (Cb/Cp).

For the next data set, the system named is Male Wister rats. The data set is described as follows: Object Recognition Task Model. Type of data set: in vivo. To be noted: rat, 3 mg/kg p.o.; for Exploration time mean ± S.E.M (sec), first value column / Exploration time mean ± S.E.M (sec), second value column: choice trial T2; for Exploration time mean ± S.E.M (sec), first value column: first of two columns (sub-head not printed, presumably familiar object); for Exploration time mean ± S.E.M (sec), second value column: second of two columns (sub-head not printed, presumably novel object); for Inference: object recognition task. How it is done: The cognition-enhancing properties of compounds of this invention were estimated using a model of animal cognition: the object recognition task model.
Male Wister rats (230-280 grams) obtained from N. I. N. (National Institute of Nutrition, Hyderabad, India) was used as experimental animals. Four animals were housed in each cage. Animals were kept on 20% food deprivation before one day and given water ad libitum throughout the experiment and maintained on a 12 hours light/dark cycle. Also the rats were habituated to individual arenas for 1 hour in the absence of any objects.
One group of 12 rats received vehicle (1 mL/Kg) orally and another set of animals received compound of the formula (I) either orally or i.p., before one hour of the familiar (T1) and choice trial (T2).
The experiment was carried out in a 50×50×50 cm open field made up of acrylic. In the familiarization phase, (T1), the rats were placed individually in the open field for 3 minutes, in which two identical objects (plastic bottles, 12.5 cm height×5.5 cm diameter) covered in yellow masking tape alone (a1 and a2) were positioned in two adjacent corners, 10 cm. from the walls. After 24 hours of the (T1) trial for long-term memory test, the same rats were placed in the same arena as they were placed in T1 trial. Choice phase (T2) rats were allowed to explore the open field for 3 minutes in presence of one familiar object (a3) and one novel object (b) (Amber color glass bottle, 12 cm high and 5 cm in diameter). Familiar objects presented similar textures, colors and sizes. During the T1 and T2 trial, explorations of each object (defined as sniffing, licking, chewing or having moving vibrissae whilst directing the nose towards the object at a distance of less than 1 cm) were recorded separately by stopwatch. Sitting on an object was not regarded as exploratory activity, however, it was rarely observed.
T1 is the total time spent exploring the familiar objects (a1+a2).
T2 is the total time spent exploring the familiar object and novel object (a3+b).
The object recognition test was performed as described by Ennaceur, A., Delacour, J., A new one-trial test for neurobiological studies of memory in rats—Behavioural data, Behay. Brain Res., 1988, 31, 47-59.

In another data set the test system is rats. Description: Water Maze (scopolamine induced reversal). Type of data set: in vivo. Conditions: p.o. How it is done: The water maze apparatus consisted of a circular pool (1.8 m diameter, 0.6 m high) constructed in black Perspex (TSE systems, Germany) filled with water (24±2° C.) and positioned underneath a wide-angled video camera to track animal. The 10 cm^2 perspex platform, lying 1 cm below the water surface, was placed in the centre of one of the four imaginary quadrants, which remained constant for all rats. The black Perspex used in the construction of the maze and platform offered no intramaze cues to guide escape behavior. By contrast, the training room offered several strong extramaze visual cues to aid the formation of the spatial map necessary for escape learning. An automated tracking system, [Videomot 2 (5.51), TSE systems, Germany] was employed. This program analyzes video images acquired via a digital camera and an image acquisition boards that determined path length, swim speed and the number of entries and duration of swim time spent in each quadrant of the water maze.

Sequence of Human 5-HT6 Receptor (P50406 whole entry): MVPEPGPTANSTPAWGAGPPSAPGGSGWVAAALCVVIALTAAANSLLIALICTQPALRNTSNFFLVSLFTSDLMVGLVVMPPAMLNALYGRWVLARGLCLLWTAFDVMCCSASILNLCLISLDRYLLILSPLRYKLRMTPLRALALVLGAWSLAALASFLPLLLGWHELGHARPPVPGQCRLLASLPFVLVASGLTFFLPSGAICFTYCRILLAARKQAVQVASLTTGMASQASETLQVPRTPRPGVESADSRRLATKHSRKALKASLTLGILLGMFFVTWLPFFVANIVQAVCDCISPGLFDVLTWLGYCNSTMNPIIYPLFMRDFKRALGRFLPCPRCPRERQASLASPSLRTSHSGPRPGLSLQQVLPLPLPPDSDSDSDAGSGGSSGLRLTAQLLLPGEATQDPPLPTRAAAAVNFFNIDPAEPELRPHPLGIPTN
Protocol for Human 5-HT6 Receptor: Receptor source: Human recombinant expressed in HEK293 cells
Radioligand: [^3H]LSD (60-80 Ci/mmol)
Final ligand concentration— [1.5 nM]
Non-specific determinant: Methiothepin mesylate— [0.1 μM]
Reference compound: Methiothepin mesylate
Positive control: Methiothepin mesylate
Reactions were carried out in 50 μM TRIS-HCl (pH 7.4) containing 10 μM MgCl2, 0.5 mM EDTA for 60 minutes at 37° C. The reaction was terminated by rapid vacuum filtration onto glass fiber filters. Radioactivity trapped onto the filters was determined and compared to control values in order to ascertain any interactions of test compound(s) with the cloned serotonin 5-HT6 binding site.

`CN1CCC(Nc2cc(NS(=O)(=O)c3ccc(F)cc3)ccc2Cl)CC1` [Example 2, 4-Fluoro-N-[4-Chloro-3-(1-methylpiperidin-4-ylamino)phenyl] benzenesulfonamide]: at Human 5-HT6 Receptor, the % Inhibition – broadly, the change of the read-out against control, counted positive when it falls – at 100 nM came to 69.45% and the “% Inhibition at 1000 nM” value came out at 96.73%.
Taken in the same sequence, the figures for `Cc1ccc(S(=O)(=O)Nc2ccc(Cl)c(NC3CCN(C)CC3)c2)cc1` [Example 3, 4-Methyl-N-[4-Chloro-3-(1-methylpiperidin-4-ylamino)phenyl] benzenesulfonamide] were 78.66% and 98.42%.
The like results for `CN1CCC(Nc2cc(NS(=O)(=O)c3ccccc3Br)ccc2Cl)CC1` [Example 5, 2-Bromo-N-[4-Chloro-3-(1-methylpiperidin-4-ylamino)phenyl] benzenesulfonamide] were, in that order, 93.8% and 101.6%.
Consider `COc1ccc(NS(=O)(=O)c2ccc(F)cc2)cc1NC1CCN(C)CC1` [Example 6, 4-Fluoro-N-[4-Methoxy-3-(1-methylpiperidin-4-ylamino)phenyl] benzenesulfonamide], for which, in data set [1] (Intravenous), the AUCt came out at 4314 ± 967 ng·h/mL; the T1/2 was 2.18 ± 1.29 h; the Tmax (in general, the time at which the peak concentration occurs) stood at 0.14 ± 0.10 h; the Cmax (in general, the maximum level reached in the sampled fluid or tissue) is given as 2885 ± 401 ng/mL. Further, in data set [1] (Oral), the AUCt came out at 1421 ± 106 ng·h/mL, the T1/2 is listed as 5.35 ± 3.65 h, the time of peak concentration (Tmax) is 2.17 ± 1.44 h and the maximum concentration (Cmax) was 372 ± 85 ng/mL. Besides, the Bioavailability in data set [1] turned out to be 34%. For the same compound, in data set [2], the “Steady State Brain Penetration (Cb/Cp)” value was determined as 0.05 ± 0.01. For the same compound, in the data set on Male Wister rats, the “Exploration time mean ± S.E.M (sec), first value column” value came out at 10.02 ± 1.54 s; the “Exploration time mean ± S.E.M (sec), second value column” value was 15.27 ± 1.32 s; the Inference result is “Active”. Besides, in the data set with rats, the “Scopolamine Induced Reversal” value is given as “≦3 mg/kg, p.o”. On Human 5-HT6 Receptor, the “% Inhibition at 10 nM” value turned out to be 20.71%, the “% Inhibition at 100 nM” value worked out at 90.83% and the “% Inhibition at 1000 nM” value is given as 99.64%.
For `COc1ccc(NS(=O)(=O)c2ccccc2Br)cc1NC1CCN(C)CC1` [Example 8, 2-Bromo-N-[4-Methoxy-3-(1-methylpiperidin-4-ylamino)phenyl] benzenesulfonamide], in data set [1] (Intravenous), the AUCt was determined as 9919 ± 701 ng·h/mL, the T1/2 was found to be 2.18 ± 0.54 h, the Tmax is given as 0.08 ± 0.0 h and the Cmax came out at 2645 ± 154 ng/mL. Also, in data set [1] (Oral), the AUCt was found to be 6222 ± 1025 ng·h/mL, the T1/2 was 5.40 ± 2.56 h, the Tmax is 1.67 ± 1.15 h and the maximum concentration (Cmax) came to 964 ± 110 ng/mL. The compound also displayed a Bioavailability in data set [1] of 63%. For the same compound, the “Steady State Brain Penetration (Cb/Cp)” value in data set [2] came out at 0.04 ± 0.01. For the same compound, in the data set on Male Wister rats, the “Exploration time mean ± S.E.M (sec), first value column” value came out at 6.72 ± 1.95 s; the “Exploration time mean ± S.E.M (sec), second value column” value amounted to 9.58 ± 2.26 s; the Inference result is given as “Active”. The “Scopolamine Induced Reversal” value in the data set on rats was “≦3 mg/kg, p.o”. On Human 5-HT6 Receptor, the “% Inhibition at 10 nM” value amounted to 71.95%, the “% Inhibition at 100 nM” value is recorded as 99.38% and the “% Inhibition at 1000 nM” value worked out at 100.63%.
`COc1ccc(NS(=O)(=O)c2ccc(C)cc2)cc1NC1CCN(C)CC1` [Example 10, 4-Methyl-N-[4-Methoxy-3-(1-methylpiperidin-4-ylamino)phenyl] benzenesulfonamide]: on Human 5-HT6 Receptor, the “% Inhibition at 100 nM” value turned out to be 88.26% and the “% Inhibition at 1000 nM” value is 99.2%.
With `CN1CCC(Nc2cccc(NS(=O)(=O)c3ccccc3Br)c2)CC1` [Example 11, 2-Bromo-N-[3-(1-methylpiperidin-4-ylamino)phenyl] benzenesulfonamide], on Human 5-HT6 Receptor, the “% Inhibition at 10 nM” value was 8.56%, the “% Inhibition at 100 nM” value came out at 64.11% and the “% Inhibition at 1000 nM” value is on record as 94.73%.
Consider `CN1CCC(Nc2cccc(NS(=O)(=O)c3ccc(F)cc3)c2)CC1` [Example 13, 4-Fluoro-N-[3-(1-methylpiperidin-4-ylamino)phenyl] benzenesulfonamide], for which, on Human 5-HT6 Receptor, the “% Inhibition at 100 nM” value was 34.95% and the “% Inhibition at 1000 nM” value is listed as 71.2%.
On to `Cc1ccc(S(=O)(=O)Nc2cccc(NC3CCN(C)CC3)c2)cc1` [Example 14, 4-Methyl-N-[3-(1-methylpiperidin-4-ylamino)phenyl] benzenesulfonamide], for which, on Human 5-HT6 Receptor, the “% Inhibition at 100 nM” value amounted to 45.25% and the “% Inhibition at 1000 nM” value came out at 80.78%.
As to `Cc1ccc(NS(=O)(=O)c2ccc(F)cc2)cc1NC1CCN(C)CC1` [Example 17, 4-Fluoro-N-[4-Methyl-3-(1-Methylpiperidin-4-ylamino)phenyl] benzenesulfonamide], on Human 5-HT6 Receptor, the “% Inhibition at 100 nM” value is on record as 64.27% and the “% Inhibition at 1000 nM” value is listed as 93.00%.
Taken in the same sequence, the figures for `Cc1ccc(S(=O)(=O)Nc2ccc(C)c(NC3CCN(C)CC3)c2)cc1` [Example 18, 4-Methyl-N-[4-Methyl-3-(1-Methylpiperidin-4-ylamino)phenyl] benzenesulfonamide] were 63.42% and 92.37%.

For the origin of these results see patent publication US8404720B2, “Aryl sulfonamide amine compounds and their use as 5-HT6 ligands” (Suven Life Sciences Limited, priority 2008, dated 2013).
